Key:
[1] = tested on: S. aureus ATCC 29213 (MSSA); assay: Antibacterial liquid microdilution (CLSI M07-A8); type: cell-based, Staphylococcus aureus; conditions: 18 to 24 h
[2] = tested on: E. coli ATCC BAA-198 (ESBL); assay: Antibacterial liquid microdilution (CLSI M07-A8); type: cell-based, Escherichia coli; conditions: 18 to 24 h
[3] = tested on: SKOV-3 cells; assay: Apoptotic/necrotic cell death, Hoechst 33258/propidium iodide staining, fluorescence microscopy; type: cell-based, human; conditions: SKOV-3, 24 h treatment with IC50 concentrations, post-treatment 24 and 48 h
Protocol: To determine the mode of cell death that was triggered by cymantrene derivatives, appropriately stained SKOV-3 cells were evaluated for morphological changes using fluorescence microscopy. For evaluation of apoptosis and autophagy, cells were stained with Hoechst 33258/propidium iodide to distinguish between live, apoptotic and necrotic cells and reveal condensed chromatin and apoptotic bodies (a hallmark of apoptosis), and with acridine orange to detect the development of acidic vesicular organelles (AVOs—a hallmark of autophagy).
One day prior to the experiments, cells were seeded at the appropriate density into 35 mm diameter dishes. […] At the end of incubation, the medium was aspirated, the cell monolayer was washed twice with pre-warmed PBS, and fresh medium was added. The cells were cultured in drug-free medium for an additional 24 or 48 h to enable them to recover after the exposure to the compounds and to repair any induced damages.
Quantitative analysis of morphological changes that are associated with apoptosis, necrosis, and autophagy were assessed using a fluorescence microscope (Olympus IX70, Tokyo, Japan) at 400× magnification, as described elsewhere. At the indicated time points, cells were washed with PBS, trypsinized, and centrifuged at 1000 rpm (fixed angle rotor, 72× g) for 5 min at 37 °C. The supernatant was removed and the cell pellet (100 µL) was transferred to the Eppendorf tube, mixed with Ho33258 (2 µL, 0.13 mM) and PI (2 µL, 0.23 mM), and incubated for 5 min in the dark at room temperature. At least 300 stained cells were counted in triplicate in each of the three independent experiments. Cells were classified as live, apoptotic, or necrotic on the basis of their morphological and staining characteristics, and each fraction was related to the total cell number.

[4] = tested on: MDA-MB-231 (triple negative breast adenocarcinoma); assay: MTT cytotoxicity assay, MDA-MB-231; type: cell-based, human
Protocol: (§1) Anticancer activity of cymantrenes was determined using a panel of human cancer cell lines that were derived from solid tumors. […] The inhibitory effect of cymantrene derivatives on cell proliferation and growth was determined based on survival curves and was expressed as IC50 values (concentration required to achieve a 50% decrease in cell viability when compared to the viability of untreated control cells) calculated using GraphPad Prism 4.02 software for Windows (GraphPad Software, San Diego, CA, USA). Cell viability was determined by the MTT microplate spectrophotometric cytotoxicity test.
(§2) Cells were grown as a monolayer in DMEM growth medium, supplemented with 10% FBS, penicillin (10 U/mL) and streptomycin (50 μg/mL), under standard conditions (37 °C, 5% CO2 and 95% air, 100% humidity) and periodically checked for Mycoplasma contamination.
(§3) The cytotoxicity of cymantrene derivatives was evaluated by the MTT microplate methods as described elsewhere [67] by incubating the cells with increasing concentrations of tested compounds for 24 h. Briefly, 0.1 mL of logarithmically growing cells were seeded in a 96-well microplate (5 × 10^4 cells/well) a day before the experiments and after 24 h of culture, tested compounds, dissolved in DMSO, and diluted in culture medium, were added. […] After further incubation for 24 h, the medium was replaced with fresh medium and the cells were allowed to grow for additional 48 h. Then, the medium was aspirated and 0.05 mL of MTT (final concentration of 5 mg/mL medium) added to each well, and the cells were incubated for further 4 h. The absorbance of the product, resulting from the MTT reduction, was read with a microplate reader at 545 nm. The percentage of viable cells was calculated by comparing the absorbance of treated cells with that of the untreated control cells (taken as 100%). The IC50 concentration of each compound was calculated from the cell survival curves using GraphPad Prism 4.02 software for Windows (GraphPad Software, San Diego, CA, USA).

[5] = tested on: bloodstream forms of T. brucei clone 427-221a; assay: Trypanocidal assay, resazurin viability assay; type: cell-based, Trypanosoma brucei
Summary of the method: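 Trypanosomes seeded at 10^4/mL and HL-60 at 5 × 10^4/mL with compound (final DMSO 0.9%), 37 °C, 5% CO2. After 24 h, resazurin added and cells incubated a further 48 h; absorbance 570 nm (reference 630 nm). GI50 by linear interpolation; MIC judged microscopically.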

[6] = tested on: human myeloid leukemia HL-60 cells; assay: in vitro
[7] = tested on: U87-MG (glioblastoma); assay: MTT cytotoxicity assay, U87-MG; type: cell-based, human
Protocol: as §1, §2, §3

[8] = tested on: MCF-7 (hormone-responsive breast adenocarcinoma); assay: MTT cytotoxicity assay, MCF-7; type: cell-based, human
Protocol: as §1, §2, §3

[9] = tested on: Gram-positive bacterial strains, including MRSA and VISA pathogens; assay: Antibacterial activity over the panel of strains (summary statements); type: cell-based
Protocol: Organometallic compounds play an increasingly important role in the search for new antibacterial agents. We, therefore, thought to investigate also the bactericidal activity of the newly synthesized cymantrenes 1–7, compound C and CymH. The antibacterial activity of the compounds was tested against Gram-positive methicillin-sensitive Staphylococcus aureus (MSSA), methicillin-resistant S. aureus (MRSA), vancomycin-intermediate S. aureus (VISA), S. epidermidis, and Gram-negative Escherichia coli bacterial strains, and expressed as minimal inhibitory concentration (MIC) values (Table 3).
The antibacterial activity of CymH, 1–7 and C and the reference drugs penicillin G and polymyxin B was tested by the liquid microdilution method under standard conditions using twofold dilution series, as described in the Clinical and Laboratory Standards Institute (CLSI), reference method M07-A8, and expressed as minimal inhibitory concentration (MIC) values. A panel of Gram-positive bacterial strains, S. aureus ATCC® 29213 (sensitive to methicillin, (MSSA)), S. aureus ATCC® 43300 (resistant to methicillin, (MRSA)), S. aureus ATCC 700787™ (intermediate to vancomycin, (VISA)), and S. epidermidis ATCC 12228™, and one Gram-negative, strain E. coli ATCC BAA-198™ (ESBL) were used. In addition, four clinical isolates of S. aureus (MSSA and MRSA) and two clinical isolates of S. epidermidis that were collected from different patients at the Medical University of Warsaw, Poland, were also tested. The bacterial cells were cultivated on tryptic soy agar (TSA) and nutrient agar (NA), according to ATCC recommendations. All of the strains were incubated at 37 °C. Tested compounds were dissolved in DMSO and then serially diluted twofold with cation-adjusted Mueller-Hinton broth (CAMHB). Then, 95 µL of the dilutions were dispensed into microdilution sterile plates (Mar-Four), followed by the addition of 5 µL of bacteria inoculum containing 5 × 10^4 CFU/mL. The final concentrations of the compounds ranged from 512 to 2 µg/mL. Each compound was tested in triplicate, and Penicillin G (8–0.15 µg/mL) and Polymyxin B (256–0.0625 µg/mL) were used as controls. The plates were incubated at 37 °C for 18 to 24 h depending on the bacterial strain. Thereafter, the absorbance was measured at λ = 540 nm and λ = 595 nm using a Spectrostar Omega microplate reader (BMG Labtech, Offenburg, Germany). The MIC value was defined as the lowest concentration of a compound that reduced the growth by 100%.

[10] = ratio of cytotoxic (HL-60) to trypanocidal (T. brucei) activity

Compound: O=C(CCn1cc(F)c(=O)[nH]c1=O)[C]12[CH]3[CH]4[CH]5[CH]1[Mn]4532.[C-]#[O+].[C-]#[O+].[C-]#[O+] (stereo not drawn) [Compound 1]
- MIC, S. aureus ATCC 29213 (MSSA) [1]: 64 µg/mL
- MIC, E. coli ATCC BAA-198 [2]: >512 µg/mL
- increase of apoptotic cells compared to untreated control cells [3]: 6 fold
- IC50 [4]: 27.9 ± 1.11 µM
- GI50 ([5]; 50% growth inhibition): 3.02 ± 0.14 µM
- MIC and GI50 ratios of cytotoxic to trypanocidal activities ([5]; HL-60 / T. brucei): 7–13
- MIC ([5]; concentration at which all cells were killed, determined microscopically): 10 µM
- Selectivity GI50 Ratio [5, 10]: 11.0
- Selectivity MIC Ratio [5, 10]: 10
- GI50 [6]: 33.1 ± 3.4 µM
- HL-60 MIC [6]: 100 µM
- IC50 [7]: 64.5 ± 3.22 µM
- IC50 [8]: 70.5 ± 2.52 µM
- antibacterial activity in words ([9]; reference bacterial strains): remarkable potency against all of the Gram-positive bacterial strains
- antibacterial activity (range over strains) ([9]; summary range): 8 to 64 µg/mL

— publication PMC6149849, “Cymantrenyl-Nucleobases: Synthesis, Anticancer, Antitrypanosomal and Antimicrobial Activity Studies” (Molecules : A Journal of Synthetic Chemistry and Natural …, 2017)
